#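 Protocol summary: plate cells (96-well), add compound at 5 concentrations, incubate 48 h, interpolate endpoints linearly. TGI: concentration producing complete growth inhibition.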
# Experiments:
# Assay in all cases: NCI anticancer screen, dose series, 48 h
# UO-31 renal = tested on: UO-31 renal
# SN12C renal = tested on: SN12C renal
# HCT-116 colon = tested on: HCT-116 colon
# SK-MEL-28 melanoma = tested on: SK-MEL-28 melanoma
# MDA-MB-231 breast = tested on: MDA-MB-231 breast
# MCF7 breast = tested on: MCF7 breast
# TK-10 renal = tested on: TK-10 renal
# OVCAR-4 ovarian = tested on: OVCAR-4 ovarian
# SF-268 CNS = tested on: SF-268 CNS
# NCI-H460 lung = tested on: NCI-H460 lung
# HS 578T breast = tested on: HS 578T breast
SMILES,TGI (UO-31 renal),TGI (SN12C renal),TGI (HCT-116 colon),TGI (SK-MEL-28 melanoma),TGI (MDA-MB-231 breast),TGI (MCF7 breast),TGI (TK-10 renal),TGI (OVCAR-4 ovarian),TGI (SF-268 CNS),TGI (NCI-H460 lung),TGI (HS 578T breast)
Cn1cnc(N2CCCC2)c(C#N)c1=S,70.3 µM,> 100 µM,> 100 µM,> 100 µM,> 100 µM,> 100 µM,> 100 µM,> 100 µM,> 100 µM,> 100 µM,> 100 µM
Cc1c(Cc2ccccc2)n(C(C)OCCN(OC(=O)Oc2ccccc2)C(=O)Oc2ccccc2)c(=O)[nH]c1=O (stereo not drawn),29.3 µM,40.5 µM,41.6 µM,42 µM,38.5 µM,63.8 µM,–,42.8 µM,40.3 µM,32.7 µM,42.6 µM
Cc1ccc(/C=C/C(=O)Oc2ccc(/C=C3\CCC/C(=C\c4ccc(OC(=O)/C=C/c5ccc(C)cc5)cc4)C3=O)cc2)cc1,> 100 µM,> 100 µM,> 100 µM,> 100 µM,> 100 µM,> 100 µM,> 100 µM,> 100 µM,> 100 µM,> 100 µM,> 100 µM
COc1ccc(-n2c(SC(CN3CCOCC3)CN3CCCC3=O)nc3ccccc3c2=O)cc1 (stereo not drawn),> 100 µM,> 100 µM,> 100 µM,> 100 µM,> 100 µM,> 100 µM,> 100 µM,> 100 µM,> 100 µM,> 100 µM,> 100 µM
O=C1c2ccccc2C(=O)N1n1c(Cc2ccc(Cl)cc2)n[nH]c1=O,> 100 µM,> 100 µM,> 100 µM,> 100 µM,> 100 µM,> 100 µM,> 100 µM,> 100 µM,–,> 100 µM,> 100 µM
CSc1cc(Cl)c(C)cc1S(=O)(=O)NC(=O)NNc1ccc(F)cc1,–,> 100 µM,> 100 µM,> 100 µM,> 100 µM,> 100 µM,–,> 100 µM,> 100 µM,> 100 µM,> 100 µM
C/C(=N\Nc1nc2cc(Cl)ccc2s1)c1ccccn1,14.8 µM,15.2 µM,> 100 µM,> 27.5 µM,7.41 µM,–,> 100 µM,> 100 µM,34.1 µM,> 100 µM,> 100 µM
CCCCCCSc1nc(N)nc2nc[nH]c12,68.6 µM,> 100 µM,> 100 µM,> 100 µM,–,> 100 µM,–,> 100 µM,> 100 µM,> 100 µM,–
CN(C)CCNC(=O)c1cccc2ccc(-c3ccc(Br)cc3)nc12,3.99 µM,13.5 µM,5.13 µM,13.2 µM,–,13.8 µM,–,8.5 µM,19.1 µM,2.77 µM,–
CC(=O)C(=O)NC1/C=C(C)\C=C/C(O)C/C=C(C)\C=C/C(O)CC2OC(=O)C1(C)C(=O)C2C (stereo not drawn),> 100 µM,> 100 µM,> 100 µM,> 100 µM,–,> 100 µM,–,> 100 µM,> 100 µM,> 100 µM,–
Nn1c(Nc2ccc(S(N)(=O)=O)cc2)nnc(/C=C/c2c(O)ccc3ccccc23)c1=O,57.3 µM,27.3 µM,34.1 µM,53.5 µM,–,43 µM,–,47.5 µM,> 100 µM,96.2 µM,> 100 µM
Cn1c(-c2ccc[se]2)ccc1-c1ccc(C=O)[se]1,> 100 µM,> 67.9 µM,> 100 µM,> 100 µM,> 100 µM,–,0.439 µM,> 61.1 µM,59.1 µM,24.2 µM,> 89.9 µM
CC1(C)OC[C@H](C(=N)OCc2ccccc2)O1,> 100 µM,> 100 µM,> 100 µM,> 100 µM,–,–,> 100 µM,> 100 µM,> 100 µM,> 100 µM,–
O=c1ccc2ccc(CBr)cc2o1,–,7.22 µM,3.74 µM,26.6 µM,4.14 µM,3.87 µM,3.37 µM,–,–,25.3 µM,28.9 µM
CC(=O)C1=C(C)O[C@@H]2O[C@H](COCc3ccccc3)[C@@H](OCc3ccccc3)[C@H](O)[C@@H]2S1,37.7 µM,37.6 µM,32 µM,64 µM,40.1 µM,–,51.3 µM,73.7 µM,32 µM,38.9 µM,39.9 µM
Cc1cc2nc3c(C#N)c4c(c(Nc5ccc(F)cc5)n3c2cc1C)CCC4,–,> 100 µM,> 100 µM,> 100 µM,> 100 µM,> 100 µM,> 100 µM,> 100 µM,> 100 µM,> 100 µM,> 100 µM
COc1cc(CC(C)=O)cc(OC)c1,> 100 µM,> 100 µM,> 100 µM,> 100 µM,> 100 µM,> 100 µM,> 100 µM,> 100 µM,> 100 µM,> 100 µM,–
CN(c1ccccc1)S(=O)(=O)c1ccc([N+](=O)[O-])cc1,> 100 µM,> 100 µM,> 100 µM,> 100 µM,> 100 µM,> 100 µM,> 100 µM,> 100 µM,> 100 µM,> 100 µM,–
Cc1cc2c(c(C(=O)NCC(=O)N[C@@H](C)C(=O)OCc3ccccc3)c1)Oc1c(cc(C)cc1C(=O)NCC(=O)N[C@@H](C)C(=O)OCc1ccccc1)S2,> 100 µM,> 100 µM,> 100 µM,–,> 100 µM,> 100 µM,–,> 100 µM,> 100 µM,> 100 µM,80.1 µM
CCOC(=O)c1c(NS(=O)(=O)c2ccc(C)cc2)sc2c1CCCC2,72.7 µM,> 100 µM,73 µM,–,72.8 µM,> 100 µM,> 100 µM,–,> 100 µM,78.8 µM,> 100 µM
N#Cc1c(N)oc(-c2ccc([N+](=O)[O-])cc2)c1C#N,42.4 µM,52.1 µM,> 100 µM,> 100 µM,64.3 µM,> 100 µM,76.8 µM,–,58.9 µM,–,82.8 µM
